From US9265816B2, “Immunogenic WT-1 peptides and methods of use thereof” (priority 2006, dated 2016)
Blank lines part the entries; values can stand above or below the compound they belong to. Residues, ends and D or L forms follow the SMILES beside them.

Columns and labels:
CD3+ T cells [1] = test: IFN-gamma ELISPOT of peptide-stimulated T cells from healthy donors with different HLA-DRB1 types; assay type: cell-based, human; conditions: for experiments with peptide specific T cell responses: 7 healthy donors, each a different HLA-DRB1 type, positive/total experiments; for peptide specific CD4 response, IFN-γ ELISPOT: donors with different HLA-DRB1 types, FIG. 5
Procedure: PBMC were Ficoll-purified from blood and resuspended at 5×10^6/ml in Ex-Vivo-150® medium (BioWhittaker, Walkersville, Md.) containing 1% autologous plasma. After a 2-hour incubation at 37° C., the non-adherent fraction was harvested and washed repeatedly with PBS, then resuspended in media containing 1×10^3 IU/ml GM-CSF and 0.0032 IU/ml IL-4. On day 2 and 4, the same media was added as re-feed (i.e., ½ the volume of media, containing enough cytokines for the entire dish, was added). On day 5, 10 μg/ml of peptide was added.
On day 6, a maturation cocktail of cytokines was added, and cells were cultured for another 48 hours. The maturation cocktail consisted of: 4×10^2 IU/ml IL-1-beta, 0.0032 IU/ml IL-4, 1×10^3 IU/ml IL-6, 1×10^3 IU/ml GMCSF, […], and 1 μg/ml PGE2.
On day 7, DC were harvested and washed twice with RPMI, counted, aliquoted and resuspended at 1×10^6/ml in X-vivo 15® media (without serum). Peptides were added to a final concentration of 10 μg/ml, and incubated for 2 h, 37° C. and 5% CO2, gently re-suspending every 15 minutes, then washed twice in HBSS and re-suspended in RPMI+5% autologous plasma at an appropriate concentration depending on the number of effectors isolated in the next step.
In addition, on day 7, additional PBMC were used to generate additional DC and CD3^+ cells. DC were isolated from the adherent fraction and prepared as described above for the second stimulation of the effector cells on day 14. CD3^+ cells were isolated from the non-adherent fraction by negative selection and stimulated with the previously prepared DC by re-suspending the CD3^+ cells at a concentration of 2×10^6 cells/ml in RPMI+5% autologous plasma, and adding DC at an effector:DC ratio of 20:1 and 10 ng/ml IL-15. Cells were then plated in 2 ml and co-incubated at 37° C. and 5% CO2 for 1 week.
On day 14, the CD3^+ cells were stimulated a second time with the second batch of DC in the same manner, except that 1×10^6 cells/ml were mixed with DC at an effector:DC ratio of 50:1. On day 18, the same media was added as re-feed. On day 20, the DC from the previous generation were defrosted and incubated in maturation cytokines in X-vivo 15® media. On day 21, the ELISPOT assay was conducted.
Plates were pre-wet with 30 μl/well 70% alcohol, shaking the plates to ensure coverage of the entire surface area, washed 3 times with 150 μl/well sterile PBS, then incubated overnight at 4° C. with 10 μg/ml coating antibody (anti-INF clone) in PBS, 100 μl/well, wrapped in aluminum foil. Plates were then washed 2 times with 150 μl/well PBS and 1 time with RPMI/10% autologous plasma (AP), then blocked with 150 μl/well RPMI/5% AP for 2 hours at 37° C. PBMC were suspended in RPMI/5% AP at 1×10^6/ml. […]

HLA-A0201 = HLA-A0201 (Homo sapiens, UniProt P04439, D140Y/D185E/D98H/E176V/E277Q/G131W/G231S/I119V/I121R/I166T/I218V/L300P/L318F/N151K/N90K/P208A/P217A/Q86G/Q94H/R138H/R169H/T345S); test: T2 assay for peptide binding and stabilization of HLA A0201 molecules; assay type: cell-based; conditions: Example 1
Procedure: T2 cells (TAP^−, HLA-A0201^+) were incubated overnight at 27° C. at a concentration of 1×10^6 cells/ml in FCS-free RPMI medium supplemented with 5 μg/ml human β2m (Sigma, St Louis, Mo.) in the absence (negative control) or presence of either a positive reference tyrosinase peptide or test peptides at various final concentrations (50, 10, 1, and 0.1 micrograms (μg)/ml). Following a 4-hour incubation with 5 μg/ml brefeldin A (Sigma), T2 cells were labeled for 30 minutes at 4° C. with a saturating concentration of anti-HLA-A2.1 (BB7.2) mAb, then washed twice. Cells were then incubated for 30 minutes, 4° C. with a saturating concentration of FITC-conjugated goat IgG F(ab′)2 anti-mouse Ig (Caltag, San Francisco, Calif.), washed twice, fixed in PBS/1% paraformaldehyde and analyzed using a FACS Calibur® cytofluorometer (Becton Dickinson, Immunocytometry Systems, San Jose, Calif.).
The mean intensity of fluorescence (MIF) observed for each peptide concentration (after dividing by the MIF in the absence of peptide) was used as an indication of peptide binding and expressed as a “fluorescence index.” Stabilization assays were performed similarly. Following initial evaluation of peptide binding at time 0, cells were washed in RPMI complete medium to remove free peptides and incubated in the continuous presence of 0.5 μg/ml brefeldin-A for 2, 4, 6 or 8 hours.
The number of stable peptide-HLA-A2.1 complexes was estimated as described above by immunofluorescence. The half time of complexes is an estimate of the time required for a 50% reduction of the MIF value at time=0.

CD3+ T cells [2] = test: Cross-priming: T cells stimulated with DCs incubated with tumor lysates, IFN-gamma ELISPOT against peptide-pulsed DCs; assay type: cell-based, human; conditions: for experiments in which lysate-stimulated T cells recognized the peptide: WT1 positive tumor lysates, 5 separate donors
Procedure: A CD3^+ in vitro stimulation was performed as described above. 2×10^6 immature DCs were incubated with total cellular lysate from 2×10^6 tumor cells that was previously prepared by 3 freeze/thaw cycles. Following an 18 hour incubation, maturation cytokines were added to the DCs as described above. […] These DCs were exposed to peptide again during the ELISPOT assay as described above.
Total tumor lysates were prepared from 3 different cell lines: 697 (WT1^+, HLA A0201^+), an e1a2 leukemia cell line; JMN (WT1^+, HLA A0201^+) a biphasic mesothelioma cell line, and as a control, MeWo (WT1^−, HLA A0201^+), a malignant melanoma cell line. DCs from healthy A0201^+ donors were incubated for 18 hours with the tumor lysates and used to stimulate autologous CD3^+ T cells. Following 3 stimulations, the T cells were tested for their reactivity to autologous DCs pulsed with the WT1 peptides. […] These experiments were repeated in 5 separate donors.

[3] = tested on: MeWo (WT1- melanoma cell line); test: Chromium 51 cytotoxicity assay; assay type: cell-based, human
Procedure: (§1) FIG. 9, left panel. […] The presence of specific CTL was measured in a standard 4 h-chromium release assay. Target cells were pulsed with 10 microgram (mcg)/ml of synthetic peptides overnight at 37° C. and labeled with 300 μCi of Na2^51CrO4 (NEN Life Science Products, Inc., Boston, Mass.). After extensive washing, target cells were incubated with T cells at an E:T ratio ranging from 100:1 to 10:1. All conditions were performed in triplicate. Plates were incubated for 4 hours at 37° C. in 5% CO2. Supernatant fluids were harvested and radioactivity was measured in a gamma counter. Percent specific lysis was determined from the following formula: 100×[(experimental release minus spontaneous release)/(maximum release minus spontaneous release)]. Maximum release was determined by lysis of radiolabeled targets in 2.5% Triton X-100.

[4] = tested on: JMN (WT1+ mesothelioma cell line); assay type: cell-based, human
Procedure: as §1

[5] = tested on: 697 (WT1+ leukemia cell line); assay type: cell-based, human
Procedure: FIG. 9, left panel. […] CD8^+ T cells were incubated with radiolabeled target cells (pulsed or unpulsed 697 (A0201^+, WT1^+) or SKLY16 (A0201+, WT1-) at 3 different E:T ratios: Grey bars 100:1; Black bars 30:1; White bars 10:1. Y axis: percentage of cytotoxicity. X axis: target cell conditions. *-p<0.05 compared to SKLY16 controls at the same E:T ratio. Right panel: CD8+ T cells isolated as described for the left panel were incubated with radiolabeled JMN (solid line A0201+ WT1+) or MeWo (dashed line A0201+, WT1-) target cells at 4 different E:T ratios: Y axis: percentage of cytotoxicity. X axis: E:T ratios. P was <0.001 compared to MeWo controls. The presence of specific CTL was measured in a standard 4 h-chromium release assay. Target cells were pulsed with 10 microgram (mcg)/ml of synthetic peptides overnight at 37° C. and labeled with 300 μCi of Na2^51CrO4 (NEN Life Science Products, Inc., Boston, Mass.). After extensive washing, target cells were incubated with T cells at an E:T ratio ranging from 100:1 to 10:1. […] Supernatant fluids were harvested and radioactivity was measured in a gamma counter. Percent specific lysis was determined from the following formula: 100×[(experimental release minus spontaneous release)/(maximum release minus spontaneous release)]. Maximum release was determined by lysis of radiolabeled targets in 2.5% Triton X-100.

[6] = human T cells stimulated 2 times with the peptide

Compound: RSDELVRHHNMHQRNMTKL (listed as Homo sapiens) [Peptide 423]
experiments with peptide specific T cell responses (CD3+ T cells [1]): 3/14

Compound: TEYKLVVVGAPGVGKSALTIQ (listed as Homo sapiens) [RAS, reference compound]
peptide specific CD4 response, IFN-γ ELISPOT (CD3+ T cells [1]): did not produce IFN-γ over background levels

stability of binding to HLA-A0201 (HLA-A0201): stable binding
Compound: YLLPAVPSL (One or more amino acids changed compared to native peptide sequence) [WT1 C1 (analogue)]

stability of binding to HLA-A0201 (HLA-A0201): stable binding
Compound: YMFPNAPYL (One or more amino acids changed compared to native peptide sequence) [WT1 A1 (analogue)]
recognition by T cells stimulated with DCs pulsed with 697 tumor lysate (CD3+ T cells [2]; 697 tumor lysate): recognized
recognition of MeWo cells by stimulated CD3+ T cells ([3]; MeWo alone or pulsed with WT1 122A1 peptide): not negative control MeWo cells
lysis of MeWo [3, 6]: 22.2%
recognition of JMN cells by stimulated CD3+ T cells ([4]; FIG. 9 right panel): recognized JMN cells
lysis of JMN [4, 6]: 44.8%

Compound: LVRHHNMHQRNMTKL (listed as Homo sapiens) [Peptide 427]
experiments in which lysate-stimulated T cells recognized the peptide (CD3+ T cells [2]): all experiments

Compound: PGCNKRYFKLSHLQMHSRKHTG (listed as Homo sapiens) [Peptide 328]
experiments in which lysate-stimulated T cells recognized the peptide (CD3+ T cells [2]): ⅗
experiments with peptide specific T cell responses (CD3+ T cells [1]): 11/15
peptide specific CD4 response, IFN-γ ELISPOT (CD3+ T cells [1]): stimulated a significant peptide specific CD4 response

stability of binding to HLA-A0201 (HLA-A0201): stable binding
Compound: YLGEQQYSV (One or more amino acids changed compared to native peptide sequence) [WT1 B (analogue)]

Compound: CSCC[C@H](NC(=O)[C@H](Cc1ccc(O)cc1)NC(=O)[C@H](C)NC(=O)[C@H](CCC(N)=O)NC(=O)CNC(=O)[C@@H](N)CO)C(=O)N[C@@H](Cc1ccccc1)C(=O)N1CCC[C@H]1C(=O)N[C@@H](CC(N)=O)C(=O)N[C@@H](C)C(=O)N1CCC[C@H]1C(=O)N[C@@H](Cc1ccc(O)cc1)C(=O)N[C@@H](CC(C)C)C(=O)N1CCC[C@H]1C(=O)N[C@@H](CO)C(=O)N[C@@H](CS)C(=O)N[C@@H](CC(C)C)C(=O)N[C@@H](CCC(=O)O)C(=O)N[C@@H](CO)C(=O)O [Peptide 122A1] (H-SGQAYMFPNAPYLPSCLES-OH)
A0201+ donors with similar cytotoxicity results [5]: ¾
cytotoxicity of stimulated CD8+ cells to 697 [5]: stimulated a sufficient number of CD8^+ cells to be cytotoxic to 697
cytotoxicity of stimulated CD4+ cells [4]: no cytotoxicity
